Measured values: ChEMBL document CHEMBL1201862, “PubChem BioAssay data set” (2004)
Activity calls are given as the source filed them.

Experiments:
[1] = molecular target: T1, Polyadenylate-binding protein 1 (Homo sapiens, UniProt P11940); test: MLLE binding blockers, Cy5 peptide tracer – biochemical, fluorescence polarization, Cy5-PAM2 peptide, secondary, miRNA deadenylation inhibitor project, dose response (AID 602260); assay type: functional; conditions: read-out: IC50_Mean
Streptococcus = test: GAS UMAA2166 growth inhibition – luminescence, BacTiterGlo, counter-screen for streptokinase expression inhibitor project, dose response (AID 1915); assay type: functional, organism-based;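 further: potency for reduction of bacterial viability or growth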
[2] = molecular target: T2, Ubiquitin-conjugating enzyme E2 N (Homo sapiens, UniProt P61088); assay type: functional;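 further: Dose-response confirmation in a TR-FRET assay detecting UBC13-driven polyubiquitin chain formation, inhibition measured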
T2 sequence (P61088 whole entry): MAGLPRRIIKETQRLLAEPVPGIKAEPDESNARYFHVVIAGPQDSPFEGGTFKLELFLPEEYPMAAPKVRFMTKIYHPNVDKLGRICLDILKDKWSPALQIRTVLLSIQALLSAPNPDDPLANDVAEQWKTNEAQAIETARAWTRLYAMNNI

HEK293 = test: EBV LMP1 TES2 canonical NF-kB signalling blockers – cell-based, HEK293, luciferase, cherry-pick, dose response (AID 588343); assay type: functional; conditions: Homo sapiens
Streptokinase A = molecular target: T3, Streptokinase A (Streptococcus pyogenes serotype M1, UniProt P10520); test: viability-normalized secreted streptokinase activity reduction – plasminogen activation absorbance, OD405, dose response (AID 1914); assay type: functional, Streptococcus pyogenes M1 GAS;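 further: secreted streptokinase activity via plasminogen activation per viability signal from cell pellet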
T3 sequence (P10520 whole entry): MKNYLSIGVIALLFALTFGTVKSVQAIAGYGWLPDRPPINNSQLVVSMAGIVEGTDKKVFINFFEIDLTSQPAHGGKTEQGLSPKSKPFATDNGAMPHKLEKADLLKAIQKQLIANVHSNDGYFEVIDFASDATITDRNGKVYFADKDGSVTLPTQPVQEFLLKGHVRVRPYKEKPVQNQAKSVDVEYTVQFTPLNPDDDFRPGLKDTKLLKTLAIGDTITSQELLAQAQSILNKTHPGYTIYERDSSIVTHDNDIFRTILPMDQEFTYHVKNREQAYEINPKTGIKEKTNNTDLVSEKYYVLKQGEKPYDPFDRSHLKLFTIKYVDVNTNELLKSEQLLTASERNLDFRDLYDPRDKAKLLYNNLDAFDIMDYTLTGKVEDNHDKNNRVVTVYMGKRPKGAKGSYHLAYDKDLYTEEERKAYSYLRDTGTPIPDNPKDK

[3] = test system: Streptococcus sp. 'group A'; test: Streptococcus pyogenes SK(-)GAS viability under kanamycin – luminescence, BacTiterGlo, confirmation, counter-screen for streptokinase expression inhibitor project, dose response (AID 1900); assay type: functional, organism-based
[4] = molecular target: T1, Polyadenylate-binding protein 1; test: MLLE domain peptide-binding blockers, IC50 – biochemical, fluorescence polarization, FITC-PAM2 peptide, dose response (AID 602259); assay type: functional; conditions: read-out: IC50_Mean
[5] = microbe, parasite or virus in culture; assay type: functional; conditions: Mycobacterium tuberculosis
Vero = test: viability of Vero cells under compound – cytotoxicity control for flavivirus capping enzyme inhibitors (AID 588742); assay type: functional; conditions: Chlorocebus sabaeus
Prothrombin = Prothrombin (Bos taurus, UniProt P00735); test: thrombin protease inhibitors – biochemical, fluorescence polarization, uHTS hits, dose response (AID 602369); assay type: functional
[6] = molecular target: 26S proteasome non-ATPase regulatory subunit 14 (Homo sapiens, UniProt O00487); test: inhibition of proteasome subunit RPN11 – biochemical, fluorescence polarization, uHTS hits, confirmation (AID 602368); assay type: functional
Sequence of 26S proteasome non-ATPase regulatory subunit 14 (O00487 whole entry): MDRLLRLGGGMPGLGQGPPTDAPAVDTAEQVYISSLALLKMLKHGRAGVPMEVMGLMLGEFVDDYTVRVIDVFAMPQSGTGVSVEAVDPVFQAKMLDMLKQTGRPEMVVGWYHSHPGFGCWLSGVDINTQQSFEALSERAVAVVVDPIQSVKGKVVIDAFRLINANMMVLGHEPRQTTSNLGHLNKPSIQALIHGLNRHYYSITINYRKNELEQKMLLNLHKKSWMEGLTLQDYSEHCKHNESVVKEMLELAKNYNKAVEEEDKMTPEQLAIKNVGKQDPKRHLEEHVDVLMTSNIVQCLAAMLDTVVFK

[7] = molecular target: 72 kDa type IV collagenase (Homo sapiens, UniProt P08253); test: Dose Response validation of uHTS RPN11 inhibitor hits using a MMP-2 Fluorescence assay.; assay type: functional
Sequence of 72 kDa type IV collagenase (P08253 whole entry, the tested form may be a part): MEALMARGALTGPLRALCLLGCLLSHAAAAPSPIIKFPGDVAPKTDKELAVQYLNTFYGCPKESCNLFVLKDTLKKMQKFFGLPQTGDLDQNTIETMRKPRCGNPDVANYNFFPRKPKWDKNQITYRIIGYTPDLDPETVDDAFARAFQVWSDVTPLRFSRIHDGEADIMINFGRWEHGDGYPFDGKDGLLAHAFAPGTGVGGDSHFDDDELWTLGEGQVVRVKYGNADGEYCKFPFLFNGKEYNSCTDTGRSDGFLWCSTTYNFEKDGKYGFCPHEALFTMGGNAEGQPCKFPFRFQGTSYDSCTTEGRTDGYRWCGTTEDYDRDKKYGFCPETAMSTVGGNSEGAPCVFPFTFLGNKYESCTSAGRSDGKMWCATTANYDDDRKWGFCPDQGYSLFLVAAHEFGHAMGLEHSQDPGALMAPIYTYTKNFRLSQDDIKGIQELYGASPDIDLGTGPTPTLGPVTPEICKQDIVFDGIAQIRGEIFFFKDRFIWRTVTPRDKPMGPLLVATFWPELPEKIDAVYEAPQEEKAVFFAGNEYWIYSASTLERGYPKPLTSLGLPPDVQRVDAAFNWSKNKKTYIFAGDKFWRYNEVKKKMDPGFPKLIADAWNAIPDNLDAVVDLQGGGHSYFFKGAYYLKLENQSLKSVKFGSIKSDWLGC

[8] = molecular target: Arf-GAP with SH3 domain, ANK repeat and PH domain-containing protein 1 (Homo sapiens, UniProt Q9ULH1); assay type: functional;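 further: biochemical fluorescence polarization dose–response screen measuring inhibition of ASAP1; ASAP1 GAP domain stimulating GTP hydrolysis by truncated human ARF1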
Sequence of Arf-GAP with SH3 domain, ANK repeat and PH domain-containing protein 1 (Q9ULH1 whole entry, the tested form may be a part): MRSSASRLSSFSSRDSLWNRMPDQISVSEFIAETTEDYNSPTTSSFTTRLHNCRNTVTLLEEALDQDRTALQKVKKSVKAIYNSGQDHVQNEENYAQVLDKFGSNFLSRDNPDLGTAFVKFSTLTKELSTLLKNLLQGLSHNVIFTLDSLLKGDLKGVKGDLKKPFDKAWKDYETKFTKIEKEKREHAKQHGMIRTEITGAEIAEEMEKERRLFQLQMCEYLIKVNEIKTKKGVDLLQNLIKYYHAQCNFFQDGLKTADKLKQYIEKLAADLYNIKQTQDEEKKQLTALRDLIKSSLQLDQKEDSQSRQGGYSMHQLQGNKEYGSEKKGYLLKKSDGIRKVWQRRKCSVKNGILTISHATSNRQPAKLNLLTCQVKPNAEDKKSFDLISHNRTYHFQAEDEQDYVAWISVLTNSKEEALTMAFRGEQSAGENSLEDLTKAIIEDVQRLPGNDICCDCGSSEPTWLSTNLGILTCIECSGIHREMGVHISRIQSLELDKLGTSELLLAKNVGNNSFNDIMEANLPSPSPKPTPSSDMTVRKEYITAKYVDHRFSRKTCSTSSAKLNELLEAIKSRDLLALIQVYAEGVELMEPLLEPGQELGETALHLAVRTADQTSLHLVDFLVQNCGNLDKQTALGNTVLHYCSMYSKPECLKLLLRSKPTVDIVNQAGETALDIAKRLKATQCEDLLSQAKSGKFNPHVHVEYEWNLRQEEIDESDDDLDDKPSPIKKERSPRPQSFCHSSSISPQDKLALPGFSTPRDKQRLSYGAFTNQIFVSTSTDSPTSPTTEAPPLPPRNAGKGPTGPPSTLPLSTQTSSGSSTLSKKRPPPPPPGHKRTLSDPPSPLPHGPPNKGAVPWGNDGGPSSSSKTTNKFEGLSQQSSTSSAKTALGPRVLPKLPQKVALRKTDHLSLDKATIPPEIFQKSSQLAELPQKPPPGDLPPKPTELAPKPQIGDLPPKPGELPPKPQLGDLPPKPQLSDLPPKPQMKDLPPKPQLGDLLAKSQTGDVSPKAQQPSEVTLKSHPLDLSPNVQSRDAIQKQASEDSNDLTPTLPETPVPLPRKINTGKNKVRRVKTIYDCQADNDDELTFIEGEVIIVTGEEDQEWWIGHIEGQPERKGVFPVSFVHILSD

[9] = molecular target: Heat shock protein HSP 90-alpha (Homo sapiens, UniProt P07900); assay type: functional, organism-based
[10] = NIH3T3 cell viability loss – ATP luminescence, mouse fibroblasts, counter-screen, dose response (AID 2010); assay type: functional, cell-based;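 further: cells exposed to compound for about 90 hours before reading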
[11] = Trypanosoma cruzi growth suppression in host cells – NIH3T3 host cells, beta-gal luminescence, confirmation (AID 2044); assay type: functional, cell-based;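 further: intracellular parasites grown in NIH/3T3 mouse fibroblasts as host cells; luminescent beta-galactosidase reporter signal from transgenic T. cruzi replicating inside host cells; inhibitors lower the luminescence signal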
[12] = A549 cell cytotoxicity, dose response, cytotoxicity control, plate reader, cherry-pick, antagonist series (AID 743412); assay type: functional, cell-based
[13] = viability loss in HEK293 cells – cell-based, plate reader, cherry-picked samples, cytotoxicity control, dose response (AID 743446); assay type: functional
[14] = blockers of bursicon-stimulated LGR2 cAMP reporter – cell-based, HEK293, CRE-luciferase reporter, cherry pick, set 2, dose response (AID 743343); assay type: functional;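 further: transfected cells were stimulated with diluted bursicon conditioned medium after compound addition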
[15] = alpha-synuclein stem-loop luciferase translation blockers – H4 neuroglioma cells, luminescence, confirmation (AID 1988); assay type: functional, cell-based
[16] = blockade of melanocortin 4 receptor signaling – cell-based, plate reader, cherry pick, counter-screen for LGR2 antagonist project, dose response (AID 743444); assay type: functional;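 further: transfected HEK 293 cells stimulated with alpha-MSH peptide; potency of inhibitors of the alpha-MSH evoked signal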
[17] = luciferase reporter signal suppression in cells – H4 neuroglioma cells, luminescence, dose response (AID 1990); assay type: functional, cell-based
[18] = Luminescence Cell-Based Dose Response HTS to Identify Inhibitors of 5'UTR Stem-Loop Driven Prion Protein mRNA Translation in H4 Neuroglioblastoma Cells. [Related pubchem assays: 1827 (Project Summary), 1813 (Primary HTS)]; assay type: functional
[19] = molecular target: Adenosylmethionine-8-amino-7-oxononanoate aminotransferase (Mycobacterium tuberculosis, UniProt P9WQ81); test: Mycobacterium tuberculosis BioA enzyme inhibitor Measured in Biochemical System Using Plate Reader - 2163-02_Inhibitor_Dose_CherryPick_Activity.; assay type: functional, Mycobacterium tuberculosis UT205
Sequence of Adenosylmethionine-8-amino-7-oxononanoate aminotransferase (P9WQ81 whole entry): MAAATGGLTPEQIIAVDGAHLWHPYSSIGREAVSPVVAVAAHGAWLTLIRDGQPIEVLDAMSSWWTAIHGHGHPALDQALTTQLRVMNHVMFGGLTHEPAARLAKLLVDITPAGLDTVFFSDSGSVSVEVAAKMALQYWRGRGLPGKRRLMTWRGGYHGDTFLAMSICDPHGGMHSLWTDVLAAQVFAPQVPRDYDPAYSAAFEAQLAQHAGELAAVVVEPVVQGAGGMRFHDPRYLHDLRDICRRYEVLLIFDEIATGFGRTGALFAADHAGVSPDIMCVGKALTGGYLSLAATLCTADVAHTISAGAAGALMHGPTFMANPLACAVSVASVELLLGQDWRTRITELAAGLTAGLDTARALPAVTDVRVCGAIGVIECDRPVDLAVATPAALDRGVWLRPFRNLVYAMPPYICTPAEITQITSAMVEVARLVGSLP

[20] = molecular target: T4, Aryl hydrocarbon receptor (Homo sapiens, UniProt P35869); conditions: Potency;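 further: confirmatory quantitative high-throughput screen measuring activation of the AhR signaling pathway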
T4 sequence (P35869 whole entry): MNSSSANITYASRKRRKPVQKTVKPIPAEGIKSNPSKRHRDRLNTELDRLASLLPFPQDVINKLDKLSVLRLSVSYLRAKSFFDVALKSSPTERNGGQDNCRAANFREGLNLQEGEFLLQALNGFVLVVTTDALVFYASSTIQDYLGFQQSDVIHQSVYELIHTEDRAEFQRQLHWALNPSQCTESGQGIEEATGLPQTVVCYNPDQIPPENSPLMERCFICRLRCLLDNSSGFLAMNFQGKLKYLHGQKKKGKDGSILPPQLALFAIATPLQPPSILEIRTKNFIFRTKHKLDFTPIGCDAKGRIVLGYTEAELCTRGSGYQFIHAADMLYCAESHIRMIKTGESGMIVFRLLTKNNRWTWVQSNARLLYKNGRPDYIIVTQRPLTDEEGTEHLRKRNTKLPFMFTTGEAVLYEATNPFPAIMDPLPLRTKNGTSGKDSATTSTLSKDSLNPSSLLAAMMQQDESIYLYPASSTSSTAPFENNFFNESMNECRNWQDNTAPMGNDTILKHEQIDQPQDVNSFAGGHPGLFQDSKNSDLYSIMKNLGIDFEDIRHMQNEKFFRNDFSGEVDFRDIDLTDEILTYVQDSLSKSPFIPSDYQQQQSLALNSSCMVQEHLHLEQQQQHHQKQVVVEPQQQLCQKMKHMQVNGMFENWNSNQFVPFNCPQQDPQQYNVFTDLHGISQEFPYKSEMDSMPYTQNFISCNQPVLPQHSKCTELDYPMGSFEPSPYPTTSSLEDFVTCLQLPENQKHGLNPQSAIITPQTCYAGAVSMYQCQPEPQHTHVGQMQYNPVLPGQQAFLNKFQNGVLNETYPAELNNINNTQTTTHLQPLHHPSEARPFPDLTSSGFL

Large T antigen = Large T antigen (Simian virus 40, UniProt P03070); assay type: functional, Betapolyomavirus macacae;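 further: Confirmatory-stage PubChem screen for compounds that inhibit SV40 T antigen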
Sequence of Large T antigen (P03070 whole entry): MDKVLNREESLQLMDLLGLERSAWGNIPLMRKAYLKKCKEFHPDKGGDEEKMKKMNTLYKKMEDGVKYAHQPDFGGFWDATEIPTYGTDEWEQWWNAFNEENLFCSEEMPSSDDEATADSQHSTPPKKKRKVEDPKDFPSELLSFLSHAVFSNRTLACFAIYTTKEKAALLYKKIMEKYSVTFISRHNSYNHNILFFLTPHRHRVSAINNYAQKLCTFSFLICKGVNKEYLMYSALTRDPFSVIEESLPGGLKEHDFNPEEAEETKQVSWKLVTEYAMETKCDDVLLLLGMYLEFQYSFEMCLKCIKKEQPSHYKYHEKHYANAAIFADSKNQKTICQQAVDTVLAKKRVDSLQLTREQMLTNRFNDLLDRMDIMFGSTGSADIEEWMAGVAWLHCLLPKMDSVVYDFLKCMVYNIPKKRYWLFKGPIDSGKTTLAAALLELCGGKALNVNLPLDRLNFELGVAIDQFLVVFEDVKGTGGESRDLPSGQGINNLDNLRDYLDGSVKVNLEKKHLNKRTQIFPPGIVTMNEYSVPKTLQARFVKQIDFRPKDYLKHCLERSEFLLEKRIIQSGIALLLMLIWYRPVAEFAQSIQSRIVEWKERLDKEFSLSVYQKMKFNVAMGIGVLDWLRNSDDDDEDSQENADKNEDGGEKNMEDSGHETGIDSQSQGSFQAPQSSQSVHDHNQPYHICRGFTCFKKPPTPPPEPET

Beta-lactamase [21] = molecular target: T5, Beta-lactamase (Pseudomonas aeruginosa, UniProt Q79MP6); test: […] counterscreen for selective VIM-2 inhibitors: dose response biochemical high throughput screening assay to identify inhibitors of IMP-1 metallo-beta-lactamase.
T5 sequence (Q79MP6 whole entry): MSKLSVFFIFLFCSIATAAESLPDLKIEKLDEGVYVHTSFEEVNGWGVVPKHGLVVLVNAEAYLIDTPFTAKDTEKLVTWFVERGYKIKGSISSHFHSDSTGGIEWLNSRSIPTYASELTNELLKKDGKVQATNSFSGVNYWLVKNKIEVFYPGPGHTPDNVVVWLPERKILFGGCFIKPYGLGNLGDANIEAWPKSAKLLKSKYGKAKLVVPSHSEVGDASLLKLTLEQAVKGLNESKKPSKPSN

[22] = molecular target: DNA dC->dU-editing enzyme APOBEC-3G (Homo sapiens, UniProt Q9HC16); test: Dose Response confirmation of small molecule APOBEC3G DNA Deaminase Inhibitors via a fluorescence-based single-stranded DNA deaminase assay. [Related pubchem assays (depositor defined):AID493012, AID493028]; assay type: functional
Sequence of DNA dC->dU-editing enzyme APOBEC-3G (Q9HC16 whole entry): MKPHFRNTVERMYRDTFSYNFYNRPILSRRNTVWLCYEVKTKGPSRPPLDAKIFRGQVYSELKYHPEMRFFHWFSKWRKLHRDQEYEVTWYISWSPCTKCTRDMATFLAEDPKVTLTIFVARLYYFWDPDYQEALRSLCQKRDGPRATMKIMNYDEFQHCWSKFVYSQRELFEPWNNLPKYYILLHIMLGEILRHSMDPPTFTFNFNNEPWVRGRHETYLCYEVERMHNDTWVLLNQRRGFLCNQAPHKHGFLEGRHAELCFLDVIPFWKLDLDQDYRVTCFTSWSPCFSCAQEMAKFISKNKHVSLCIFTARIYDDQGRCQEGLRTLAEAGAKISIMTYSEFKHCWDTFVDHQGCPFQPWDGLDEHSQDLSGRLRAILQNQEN

Beta-lactamase [23] = molecular target: Beta-lactamase (Salmonella choleraesuis (strain SC-B67), UniProt Q5J463); test: Epi-absorbance-based counterscreen for selective VIM-2 inhibitors: dose response biochemical high throughput screening assay to identify inhibitors of TEM-1 serine-beta-lactamase.
Sequence of Beta-lactamase (Salmonella choleraesuis (strain SC-B67), UniProt Q5J463) (Q5J463 whole entry): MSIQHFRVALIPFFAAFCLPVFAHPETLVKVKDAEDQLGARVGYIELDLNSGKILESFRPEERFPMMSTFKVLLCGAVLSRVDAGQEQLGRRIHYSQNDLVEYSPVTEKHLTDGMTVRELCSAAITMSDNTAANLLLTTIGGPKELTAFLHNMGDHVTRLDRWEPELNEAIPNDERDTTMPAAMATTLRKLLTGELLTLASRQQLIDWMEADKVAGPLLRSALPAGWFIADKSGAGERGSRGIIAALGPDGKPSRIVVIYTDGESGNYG

Beta-lactamase [24] = molecular target: T5, Beta-lactamase; test: inhibition of IMP-1 beta-lactamase activity – biochemical, epi-absorbance, selectivity assay for VIM-2 inhibitor project, dose response (AID 1920)

T1 sequence (P11940 whole entry): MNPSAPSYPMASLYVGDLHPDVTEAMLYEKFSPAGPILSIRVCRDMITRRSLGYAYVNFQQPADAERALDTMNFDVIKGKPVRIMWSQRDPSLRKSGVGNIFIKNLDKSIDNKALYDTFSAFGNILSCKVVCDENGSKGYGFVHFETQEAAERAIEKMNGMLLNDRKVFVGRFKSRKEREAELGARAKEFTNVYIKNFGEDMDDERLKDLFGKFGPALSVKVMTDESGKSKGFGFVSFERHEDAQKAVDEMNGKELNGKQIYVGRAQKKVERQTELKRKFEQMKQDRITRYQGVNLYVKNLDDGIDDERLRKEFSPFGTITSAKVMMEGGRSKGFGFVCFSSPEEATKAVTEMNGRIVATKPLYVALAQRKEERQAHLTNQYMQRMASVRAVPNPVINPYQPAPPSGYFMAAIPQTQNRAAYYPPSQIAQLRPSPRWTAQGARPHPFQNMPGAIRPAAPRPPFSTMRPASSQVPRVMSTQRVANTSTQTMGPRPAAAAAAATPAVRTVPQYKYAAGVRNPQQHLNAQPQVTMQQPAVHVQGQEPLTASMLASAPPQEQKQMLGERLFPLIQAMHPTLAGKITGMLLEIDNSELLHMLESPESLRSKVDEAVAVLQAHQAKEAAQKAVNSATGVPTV

In the case of `CCOc1ccc(NC(=S)N=Nc2c(O)[nH]c3ccccc23)cc1`, the IC50 [1] is reported as > 66 µM (inactive), the EC50 (Streptococcus) is reported as 5.53 µM (active) and the IC50 [2] is reported as > 20 µM (inactive). The AC50 (HEK293) was 2.7 µM (active), the EC50 (Streptokinase A) was > 150 µM (not active) and the EC50 [3] was 0.465 µM (active). The IC50 [4] was > 66 µM (inactive).

For `c1ccc(-n2cnc3cc(NCc4cccs4)ccc32)cc1`, the CC50 [5] was > 40 µM (active) and the CC50 (Vero) was > 40 µM (active).

For `Cc1ccc(C)c(OCCn2cc(/C=C(/C#N)C(=O)NCC3CCCO3)c3ccccc32)c1` (stereo not given), the IC50 (Prothrombin) was 45.4 µM (active), the IC50 [6] was 27.5 µM (active) and the IC50 [7] was > 100 µM (inactive).

In the case of `COC(=O)c1ccc(NC(=O)c2cn(-c3ccccc3)nc2-c2ccncc2)cc1`, the IC50 [8] is reported as 17.2 µM (inactive), the AC50 [9] is reported as 4.18 µM (active) and the EC50 [10] is reported as > 60 µM (not active). For the same compound, the EC50 [11] was 1.9 µM (active).

For `Cc1cc(N2CCCC2)c(F)cc1/C=C\[N+](=O)[O-]`, the IC50 (Prothrombin) was 20 µM (active), the IC50 [6] was 14.7 µM (active) and the IC50 [7] was > 100 µM (inactive).

In the case of `Cc1ccnc(NC(=O)CCC(=O)c2cccs2)c1`, the AC50 [12] is reported as > 52 µM (inactive), the AC50 [13] is reported as 34.9 µM (active) and the AC50 [14] is reported as 2.38 µM (active). For the same compound, the EC50 [15] was 2.36 µM (active), the AC50 [16] was 2.17 µM (active) and the EC50 [17] was 4.73 µM (inconclusive). For the same compound, the AC50 (HEK293) was 3 µM (active) and the EC50 [18] was 2.97 µM (active).

For `COC(=O)c1sc(N)c(C(=O)OC)c1CSc1nnc(-c2ccccc2Cl)n1C`, the AC50 [19] was 1.07 µM (active).

With `Oc1ccc2cc(SSc3ccc4cc(O)ccc4c3)ccc2c1` the AC50 [20] was 56.2 µM (inconclusive).

For `O=c1c(-c2ccc([N+](=O)[O-])cc2)coc2c(O)c(O)ccc12`, the CC50 (Vero) was 21.4 µM (active) and the IC50 (Large T antigen) was 13.8 µM (active).

With `CCCCn1c(S)nnc1-c1nn(C)c(C)c1Cl` the IC50 (Beta-lactamase [21]) was > 59.6 µM (inactive), the IC50 [22] was 12.5 µM (active) and the IC50 (Beta-lactamase [23]) was > 59.6 µM (inactive). For the same compound, the IC50 (Beta-lactamase [24]) was > 59.6 µM (inactive).
